Measured values reported in EP0513000B1, “MRI IMAGE ENHANCEMENT OF BONE AND RELATED TISSUE USING COMPLEXES OF PARAMAGNETIC CATIONS AND POLYPHOSPHONATE LIGANDS” (CONCAT LTD., priority 1989, dated 1991).

Columns and labels:
[1] = Relative equilibrium constant measurements (competition with EHPG for Fe(III)); assay type: physicochemical; settings: 0.25M phosphate buffer at pH 7.2, heated overnight at 100°C, TLC and colour
Procedure: The highly colored Fe(III) complex of EHPG (used for comparison in part E of this example) was dissolved in 0.25 M phosphate buffer at pH 7.2, and an equimolar quantity of N,N',N''-tris(dihydroxyphosphorylmethyl)-1,4,7-triazacyclononane was added. The solution was heated overnight at 100°C.
The reverse experiment was also performed. The Fe(III) complex of N,N',N''-tris(dihydroxyphosphorylmethyl)-1,4,7-triazacyclononane was thus dissolved in 0.25M phosphate buffer at pH 7.2, and an equimolar quantity of EHPG was added. The solution was heated overnight at 100°C.

Water solubility = assay type: physicochemical; settings: read-out: soluble in water at concentrations
mice = assay: Toxicity after intravenous administration to mice, two-week observation; assay type: in vivo; settings: for Survived?: mice, intravenous, alive at end of two-week period
Procedure: Physiological salts of the various ligand/metal cation complexes described herein were administered intravenously to mice. […] The mice were considered to have "survived" administration of each agent if they were alive at the end of the two-week period.

[2] = Stability: TLC before and after heating; assay type: physicochemical; settings: heating at 100°C for two hours
Procedure: TLC was performed on test species A and D, both before and after heating at 100°C for two hours.

[3] = In vivo distribution of radioisotopically labeled analogs (radioassay of tissues); parameters: species or system mice; settings: radioisotope analog; for concentration of agent in brain: within the first hour
Procedure: (§1) The resulting complexes were subjected to radiochromatography to insure acceptable radiopurity and identity with the parent complexes. They were then administered intravenously to mice in order to measure in vivo distribution and whole body clearance. The location of the test species in the mice's bodies and the rate at which the test species were cleared from the mice's bodies after administration were determined by radioassay of tissues and whole body counting, both performed by conventional gamma ray counting techniques. Concentration of activity in tissues was determined as activity per gram of tissue, and whole body counts were expressed as the percentage of whole body activity at a given time with respect to whole body activity immediately after injection. The results were as follows: • 1. Radioisotopes of Test Species A and B. In vivo distribution. […] By measurements taken one hour after administration, the ratio of the concentration of the test species in bone to that in whole blood was generally over 25:1, while the ratio of their concentration in kidney to that in blood was generally over 10:1. Even after 24 hours, when less than 5% of the administered dose remained in the body (see below), a high ratio of concentration of the test species in bone and kidney to that in blood was maintained. […] Whole Body Clearance. […] Radioisotope of Test species C. In vivo distribution. One hour after administration, the measured bone-to-blood concentration ratio was greater than 4.5:1, and the measured kidney-to-blood ratio was greater than 5.5:1. […] Whole Body Clearance. Within 24 hours of administration, over 95% of the tent species had been cleared from the body. • 3. Radioisotope of Test Species D. In vivo distribution. One hour after administration, the measured bone-to-blood concentration ratio was greater than 6:1, and the measured kidney-to-blood ratio was greater than 10:1. […] Whole Body Clearance.

[4] = Whole body clearance of radioisotopically labeled analogs (whole body counting); assay type: in vivo; settings: mice, intravenous, radioisotope analog
Procedure: Radioisotopically labeled analogs of test species selected from those listed above were synthesized, using radioisotopes of Fe(III) (iron-59), Cr(III) (chromium-51) and Gd(III) (gadolinium-153), and employing the general synthesis procedures described above. The resulting complexes were subjected to radiochromatography to insure acceptable radiopurity and identity with the parent complexes. They were then administered intravenously to mice in order to measure in vivo distribution and whole body clearance.
as §1, with “The” for “The resulting complexes were subjected to radiochromatography to insure acceptable radiopurity and identity with the parent complexes. They were then administered intravenously to mice in order to measure in vivo distribution and whole body clearance. The”

[5] = Proton longitudinal relaxivity (1/τ1) measurements; assay type: physicochemical; settings: 20 MHz, 0.1 M phosphate buffer at pH 7.2
Procedure: Measurements of proton longitudinal relaxivity (1/τ1) were performed on some of the test species listed above, and compared with those obtained using the following complexes outside the scope of this invention: (i) Gd(III) with diethylenetriamine pentaacetic acid (DTPA), and (ii) Fe(III) with N,N'-ethylenebis[(2-hydroxyphenyl)-glycinate] (EHPG). All measurements were obtained using a Bruckner PC/20 Minispec device operating at 20 MHz. All samples were dissolved in 0.1 M phosphate buffer at pH 7.2.

[6] = within 24 hours of administration

O=P(O)(O)CN1CCN(CP(=O)(O)O)CCN(CP(=O)(O)O)CC1 [N,N',N''-tris(dihydroxyphosphorylmethyl)-1,4,7-triazacyclononane]
species present after equimolar ligand was added to Fe(III) complex of EHPG [1]: TLC showed only the presence of the Fe(III) N,N',N''-tris(dihydroxyphosphorylmethyl)-1,4,7-triazacyclononane complex

O=P(O)(O)CN1CCN(CP(=O)(O)O)CCN(CP(=O)(O)O)CC1 [Test Species A, N,N',N''-tris(dihydroxyphosphorylmethyl)-1,4,7-triazacyclononane]
solubility (Water solubility): > 500 mg/mL
Survived? (mice; Dose 11.8mM/kg, Rate 0.4mM/sec/kg): yes
toxicity observed, versus the single, chromatographically distinct product (mice; preparations made by alternate complexation procedures, containing multiple forms of the complex by TLC): substantially greater
TLC before and after heating [2]: A single, chromatographically distinct spot which did not vary as a result of the heating
accumulation of activity in fractured tibia versus contralateral normal tibia ([3]; mice with a tibia broken two to four weeks prior to the study): significantly greater accumulation of activity
ratio of concentration in bone and kidney to that in blood ([3]; mice, intravenous, after 24 hours): high ratio
activity in the brain ([3]; mice, intravenous, at all times following administration): very low activity
concentration of radioactivity in bone and kidneys ([3]; mice, intravenous, within 2 minutes following administration): evidence of concentration of radioactivity in bone and kidneys
administered dose remained in the body ([4]; after 24 hours): less than 5%
cleared from the body [4, 6]: over 95%
route of whole body clearance [4, 6]: almost exclusively through the urine
proton longitudinal relaxivity relative to the Fe(III) complex of EHPG (times greater) [5]: two to three

O=P(O)(O)CN1CCN(CP(=O)(O)O)CCN(CP(=O)(O)O)CC1 [Test Species B, N,N',N''-tris(dihydroxyphosphorylmethyl)-1,4,7-triazacyclononane]
Survived? (mice; Dose 9.8mM/kg, Rate 0.7mM/min/kg): yes

O=P(O)(O)CCN1CCN(CCP(=O)(O)O)CCN(CCP(=O)(O)O)CC1 [Test Species C, N,N',N''-tris(dihydroxyphosphorylethyl)-1,4,7-triazacyclononane]
Survived? (mice; Dose 10.0mM/kg, Rate 2.0mM/min/kg): yes
concentration of agent in brain ([3]; mice, intravenous): very low concentration
cleared from the body [4, 6]: over 95%

O=P(O)(O)CN1CCN(CP(=O)(O)O)CCN(CP(=O)(O)O)CC1 [Test Species D, N,N',N''-tris(dihydroxyphosphorylmethyl)-1,4,7-triazacyclononane]
Survived? (mice; Dose 2.9mM/kg, Rate 0.5mM/sec/kg): yes
concentration of agent in brain ([3]; mice, intravenous): very low concentration

O=P(O)(O)CN1CCN(CP(=O)(O)O)CCN(CP(=O)(O)O)CC1 [Test Species E, N,N',N''-tris(dihydroxyphosphorylmethyl)-1,4,7-triazacyclononane]
Survived? (mice; Dose 2.9mM/kg, Rate 1.1mM/min/kg): yes

O=P(O)(O)CN1CCN(CP(=O)(O)O)CCN(CP(=O)(O)O)CC1 [Test Species F, N,N',N''-tris(dihydroxyphosphorylmethyl)-1,4,7-triazacyclononane]
Survived? (mice; Dose 8.0mM/kg, Rate 2.6mM/min/kg): yes

O=P(O)(O)CN1CCN(CP(=O)(O)O)CCN(CP(=O)(O)O)CC1 [Test Species G, N,N',N''-tris(dihydroxyphosphorylmethyl)-1,4,7-triazacyclononane]
Survived? (mice; Dose 3.1mM/kg, Rate 0.8mM/min/kg): yes

Fe(III) complex of N,N',N''-tris(dihydroxyphosphorylmethyl)-1,4,7-triazacyclononane
species present after equimolar EHPG was added to the Fe(III) complex (reverse experiment) [1]: TLC showed only the presence of the Fe(III) N,N',N''-tris(dihydroxyphosphorylmethyl)-1,4,7-triazacyclononane complex
